The results in this text go back to patent US20070219191A1, “3-Pyridinium Methyl Cephem Compound” (priority 2004, published 2007).

Holding throughout (test): Antibacterial activity, MIC by agar plate dilution method
Holding throughout (assay type): cell-based

For one test, the system named is E. coli NIHJ JC-2. To be noted: Escherichia coli, NIHJJC2, 1000 cfu/spot. As for the experimental part: (§1) Antibacterial activity of Compound (I) was examined.
(§2) Minimal inhibitory concentration (MIC: μg/ml) was determined by an agar plate dilution method using a sensitive disc medium as a test medium with an innoculation amount of 1000 cfu/spot in conformance with the standard method established by Japanese Society of Chemotherapy.

In the next test the test system is H. influenzae ATCC49766. To be noted: Haemophilus influenzae, 1000 cfu/spot. As for the experimental part: as §1, §2
In the next test the test system is P. aeruginosa SR24. To be noted: Pseudomonas aeruginosa, 1000 cfu/spot. As to the method:
as §1, §2

The subject of a further test is S. pneumoniae Type I. To be noted: Streptococcus pneumoniae, 1000 cfu/spot. As to the method: as §1, §2

Values after ≈ are worked out from the molar mass of the structure shown.

In the case of `CC(C)(O/N=C(\C(=O)NC1C(=O)N2C(C(=O)[O-])=C(C[n+]3ccc(NC4CCNC4)cc3)CSC12)c1nsc(N)n1)C(=O)O` (stereo not shown) [Example 5], the MIC in the test on E. coli NIHJ JC-2 worked out at 0.125 µg/mL (≈ 0.198 µM); in the test on H. influenzae ATCC49766, 0.063 µg/mL (≈ 0.0997 µM); against P. aeruginosa SR24, 0.5 µg/mL (≈ 0.792 µM); against S. pneumoniae Type I it was 0.125 µg/mL (≈ 0.198 µM).

On to `Cc1c(N)[nH]c2ccc[n+](CC3=C(C(=O)[O-])N4C(=O)C(NC(=O)/C(=N\OC(C)(C)C(=O)O)c5nsc(N)n5)C4SC3)c12` (stereo not shown) [Example 10], for which the MIC in the test with E. coli NIHJ JC-2 was determined as 0.25 µg/mL (≈ 0.406 µM); against H. influenzae ATCC49766 it was 0.016 µg/mL (≈ 0.026 µM); in the test with P. aeruginosa SR24, 0.5 µg/mL (≈ 0.812 µM); against S. pneumoniae Type I, 0.125 µg/mL (≈ 0.203 µM).

In the case of `CC(C)(O/N=C(\C(=O)NC1C(=O)N2C(C(=O)[O-])=C(C[n+]3cccc4c3nc(N)n4C3CCNCC3)CSC12)c1nsc(N)n1)C(=O)O` (stereo not shown) [Example 12], the MIC in the test on E. coli NIHJ JC-2 stood at 0.125 µg/mL (≈ 0.182 µM); with H. influenzae ATCC49766, 0.032 µg/mL (≈ 0.0467 µM); in the test on P. aeruginosa SR24, 0.25 µg/mL (≈ 0.365 µM); against S. pneumoniae Type I, 0.25 µg/mL (≈ 0.365 µM).

On to `C[C@H](N)CCn1c(N)nc2c1ccc[n+]2CC1=C(C(=O)[O-])N2C(=O)C(NC(=O)/C(=N\OC(C)(C)C(=O)O)c3nsc(N)n3)C2SC1` (stereo partly shown) [Example 19], for which the MIC with E. coli NIHJ JC-2 was 0.125 µg/mL (≈ 0.186 µM); in the test with H. influenzae ATCC49766, 0.032 µg/mL (≈ 0.0475 µM); in the test on P. aeruginosa SR24 it was 0.5 µg/mL (≈ 0.742 µM); against S. pneumoniae Type I it was 0.125 µg/mL (≈ 0.186 µM).
